According to PubChem BioAssay (NCI):
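The compound was tested at five concentrations on cells cultured in 96-well plates, with a 48-hour exposure period. GI50 marks 50% less growth. TGI: concentration producing complete growth inhibition.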

Key:
Test in all cases: NCI-60 cell line screen, 48 h
DLD-1 colon = test system: DLD-1 colon
XF 498 CNS = test system: XF 498 CNS
HOP-62 NSCLC = test system: HOP-62 NSCLC
K-562 leukemia = test system: K-562 leukemia
ACHN renal = test system: ACHN renal
MCF7 breast = test system: MCF7 breast
SNB-19 CNS = test system: SNB-19 CNS
SF-295 CNS = test system: SF-295 CNS
SNB-78 CNS = test system: SNB-78 CNS
T-47D breast = test system: T-47D breast

O=C(NCCOCCO)c1ccc(O)cc1
TGI (DLD-1 colon): > 100 µM
TGI (XF 498 CNS): > 100 µM
TGI (HOP-62 NSCLC): > 100 µM
TGI (K-562 leukemia): > 100 µM
TGI (ACHN renal): > 100 µM

NC1=C(O)/C(=N/NS(=O)(=O)c2ccccc2)C(c2cccc(Cl)c2)O1 (stereo not drawn)
TGI (MCF7 breast): 61.7 µM
TGI (DLD-1 colon): 31.7 µM
TGI (SNB-19 CNS): > 100 µM
TGI (SF-295 CNS): > 100 µM
TGI (HOP-62 NSCLC): > 100 µM
TGI (K-562 leukemia): 27.9 µM
TGI (ACHN renal): > 84.1 µM
TGI (SNB-78 CNS): > 100 µM

Cn1c(=O)ccc2cc(C(=O)c3ccccc3)ccc21
TGI (DLD-1 colon): > 100 µM
TGI (SNB-19 CNS): > 100 µM
TGI (SF-295 CNS): > 100 µM
TGI (XF 498 CNS): > 100 µM
TGI (HOP-62 NSCLC): > 100 µM
TGI (K-562 leukemia): > 100 µM
TGI (ACHN renal): > 100 µM

O=C1CCC(=O)C12CCc1ccccc12
TGI (DLD-1 colon): > 100 µM
TGI (SF-295 CNS): > 100 µM
TGI (XF 498 CNS): > 100 µM
TGI (HOP-62 NSCLC): > 100 µM
TGI (ACHN renal): > 100 µM

C=C1[C@@H]2CCC(C)(C)[C@H]1CCC(=O)[C@@H]2C(=O)OC
TGI (SNB-19 CNS): > 100 µM
TGI (SF-295 CNS): > 100 µM
TGI (XF 498 CNS): > 100 µM
TGI (HOP-62 NSCLC): > 100 µM
TGI (K-562 leukemia): > 100 µM
TGI (ACHN renal): > 100 µM

CCN(CC)[C@@H]1c2cc3c(cc2C(c2cc(OC)c(O)c(OC)c2)C2C(=O)CO[C@@H]21)OCO3 (stereo partly drawn)
TGI (DLD-1 colon): > 100 µM
TGI (SF-295 CNS): > 100 µM
TGI (XF 498 CNS): > 100 µM
TGI (HOP-62 NSCLC): > 100 µM
TGI (K-562 leukemia): > 100 µM
TGI (ACHN renal): > 100 µM

CCC1(O)CC(c2ccccc2)N(C)C(c2ccccc2)C1 (stereo not drawn)
TGI (DLD-1 colon): > 100 µM
TGI (SNB-19 CNS): > 100 µM
TGI (SF-295 CNS): > 100 µM
TGI (HOP-62 NSCLC): > 100 µM
TGI (K-562 leukemia): > 100 µM
TGI (ACHN renal): > 100 µM
TGI (SNB-78 CNS): > 100 µM

O=C1OC(/C=C/c2ccccc2)C(=O)C1=O (stereo not drawn)
TGI (DLD-1 colon): > 100 µM
TGI (SNB-19 CNS): > 100 µM
TGI (SF-295 CNS): > 100 µM
TGI (XF 498 CNS): > 100 µM
TGI (HOP-62 NSCLC): > 100 µM
TGI (K-562 leukemia): > 100 µM
TGI (ACHN renal): > 100 µM

COc1cc2c(cc1OC)-c1c(c3ccc([N+](=O)[O-])cc3c(=O)n1CCCBr)C2=O
GI50 (MCF7 breast): 0.0985 µM
TGI (MCF7 breast): > 100 µM
GI50 (SNB-19 CNS): 33.3 µM
TGI (SNB-19 CNS): > 100 µM
GI50 (SF-295 CNS): 9.07 µM
TGI (SF-295 CNS): > 100 µM
GI50 (HOP-62 NSCLC): 20.7 µM
TGI (HOP-62 NSCLC): > 100 µM
GI50 (T-47D breast): 0.731 µM
TGI (T-47D breast): > 100 µM
GI50 (K-562 leukemia): 5.2 µM
TGI (K-562 leukemia): > 100 µM
GI50 (ACHN renal): 1.18 µM
TGI (ACHN renal): 36.8 µM

COc1cc(Nc2nccc(-c3cnn4ncccc34)n2)cc(OC)c1
GI50 (MCF7 breast): 0.0521 µM
TGI (MCF7 breast): 0.2 µM
GI50 (SNB-19 CNS): 0.0836 µM
TGI (SNB-19 CNS): > 25 µM
GI50 (SF-295 CNS): 0.0572 µM
TGI (SF-295 CNS): 0.721 µM
GI50 (HOP-62 NSCLC): 0.0868 µM
TGI (HOP-62 NSCLC): 0.651 µM
GI50 (T-47D breast): 0.122 µM
TGI (T-47D breast): 1.55 µM
GI50 (K-562 leukemia): 0.115 µM
TGI (K-562 leukemia): > 25 µM
GI50 (ACHN renal): 0.0565 µM
TGI (ACHN renal): 4.16 µM

CCc1cc(Cc2cc(CC)cc(C(C)(C)C)c2O)c(O)c(C(C)(C)C)c1
GI50 (MCF7 breast): 2.49 µM
TGI (MCF7 breast): 7.74 µM
GI50 (SNB-19 CNS): 3.13 µM
TGI (SNB-19 CNS): 11.8 µM
GI50 (SF-295 CNS): 2.06 µM
TGI (SF-295 CNS): 4.88 µM
GI50 (HOP-62 NSCLC): 4.39 µM
TGI (HOP-62 NSCLC): 17.1 µM
GI50 (T-47D breast): 2.59 µM
TGI (T-47D breast): 7.87 µM
GI50 (K-562 leukemia): 3.37 µM
TGI (K-562 leukemia): 13.9 µM
GI50 (ACHN renal): 3.27 µM
TGI (ACHN renal): 10.4 µM

O=C(c1ccccc1)C(c1ccccc1)C1(O)C(=O)Nc2ccc(Br)cc21 (stereo not drawn)
TGI (DLD-1 colon): > 100 µM
TGI (SNB-19 CNS): > 100 µM
TGI (SF-295 CNS): > 100 µM
TGI (HOP-62 NSCLC): > 100 µM
TGI (K-562 leukemia): 80.8 µM
TGI (ACHN renal): > 100 µM
TGI (SNB-78 CNS): > 100 µM

CC(NC(=O)C1(N)CCCC1)C(=O)O (stereo not drawn)
TGI (MCF7 breast): > 100 µM
TGI (SNB-19 CNS): > 100 µM
TGI (SF-295 CNS): > 100 µM
TGI (HOP-62 NSCLC): > 100 µM
TGI (T-47D breast): > 100 µM
TGI (K-562 leukemia): > 100 µM
TGI (ACHN renal): > 100 µM

CCn1cc(C(=O)O)c(=O)c2cc(F)c(N3CCNCC3)nc21
TGI (DLD-1 colon): > 100 µM
TGI (SNB-19 CNS): > 100 µM
TGI (SF-295 CNS): > 100 µM
TGI (HOP-62 NSCLC): > 100 µM
TGI (K-562 leukemia): > 100 µM
TGI (ACHN renal): > 100 µM
TGI (SNB-78 CNS): > 100 µM

Fc1cccc(C2SCc3nc4ccccc4n32)c1 (stereo not drawn)
TGI (DLD-1 colon): > 100 µM
TGI (SNB-19 CNS): > 100 µM
TGI (SF-295 CNS): > 100 µM
TGI (K-562 leukemia): > 100 µM
TGI (ACHN renal): > 100 µM
TGI (SNB-78 CNS): > 100 µM

COC(=O)c1cccc(COc2ccc([N+](=O)[O-])cc2Cl)c1
TGI (MCF7 breast): > 100 µM
TGI (SNB-19 CNS): > 100 µM
TGI (SF-295 CNS): > 100 µM
TGI (HOP-62 NSCLC): > 100 µM
TGI (T-47D breast): > 100 µM
TGI (K-562 leukemia): > 100 µM
TGI (ACHN renal): > 100 µM

O=C(O)c1cccc(F)c1C(=O)c1ccc2ccccc2c1
TGI (MCF7 breast): > 100 µM
TGI (SNB-19 CNS): > 100 µM
TGI (SF-295 CNS): > 100 µM
TGI (HOP-62 NSCLC): > 100 µM
TGI (T-47D breast): > 100 µM
TGI (K-562 leukemia): > 100 µM
TGI (ACHN renal): > 100 µM

Cc1cc2c(C=O)[nH]nc2c(C#N)c1C
TGI (DLD-1 colon): > 100 µM
TGI (SNB-19 CNS): > 100 µM
TGI (SF-295 CNS): > 100 µM
TGI (HOP-62 NSCLC): > 100 µM
TGI (K-562 leukemia): > 100 µM
TGI (ACHN renal): > 100 µM
TGI (SNB-78 CNS): > 100 µM

O=C1C2Cc3ccccc3CN2C(=O)N1CCN1CCOCC1 (stereo not drawn)
TGI (DLD-1 colon): > 100 µM
TGI (SNB-19 CNS): > 100 µM
TGI (SF-295 CNS): > 100 µM
TGI (HOP-62 NSCLC): > 100 µM
TGI (K-562 leukemia): > 100 µM
TGI (ACHN renal): > 100 µM

OC1/C(=C/c2ccccc2)CNC/C1=C\c1ccccc1 (stereo not drawn)
TGI (DLD-1 colon): > 100 µM
TGI (SNB-19 CNS): > 100 µM
TGI (SF-295 CNS): > 100 µM
TGI (HOP-62 NSCLC): > 100 µM
TGI (ACHN renal): > 100 µM
TGI (SNB-78 CNS): > 100 µM

O=P1(NCCCl)OCCC(OO)N1CCCl (stereo not drawn)
TGI (MCF7 breast): > 100 µM
TGI (DLD-1 colon): 50.5 µM
TGI (SNB-19 CNS): > 100 µM
TGI (SF-295 CNS): > 100 µM
TGI (HOP-62 NSCLC): > 100 µM
TGI (T-47D breast): 17.7 µM
TGI (K-562 leukemia): > 64 µM
TGI (ACHN renal): 33 µM
TGI (SNB-78 CNS): 86.7 µM

OCC1C2C=CC(O2)[C@H]1CO (stereo partly drawn)
TGI (DLD-1 colon): > 100 µM
TGI (SNB-19 CNS): > 100 µM
TGI (SF-295 CNS): > 100 µM
TGI (HOP-62 NSCLC): > 100 µM
TGI (ACHN renal): > 100 µM
TGI (SNB-78 CNS): > 100 µM
